assay type: physicochemical; conditions: HPLC on reversed phase columns, method [a]: pH 2.7, 0.1% formic acid in water / acetonitrile, linear gradient 10% to 95% acetonitrile

| log P | Structure (SMILES) |
| --- | --- |
| 1.27[a] | C#Cc1cnc2ccc(C3=NOC(C)(C(=O)NCc4cnccc4OC)C3)cc2c1 (stereo not shown) [compound 672] |
| 3.15[a] | C#Cc1cnc2ccc(C3=NOC(C)(C(=O)N(OC)C(C)C)C3)cc2c1 (stereo not shown) [compound 650] |
| 1.22^[a] | C#Cc1cnc2ccc(C3=NOC(C)(C(=O)NCC4CCCN4CC)C3)cc2c1 (stereo not shown) [compound 232] |
| 2.26[a] | C#Cc1cnc2ccc(C3=NOC(C)(C(=O)NCc4nc(C)cs4)C3)cc2c1 (stereo not shown) [compound 648] |
| 2.07[a] | C#Cc1cnc2ccc(C3=NOC(C)(C(=O)NCc4cccc(C(C)C)n4)C3)cc2c1 (stereo not shown) [compound 660] |
| 3.80[a] | CC(C)CC(C)NC(=O)C1(C)CC(c2ccc3ncc(Br)cc3c2)=NO1 (stereo not shown) [compound 321] |
| 3.25^[a] | C#Cc1cnc2ccc(C3=NOC(C)(C(=O)NC4CCCCC4)C3)cc2c1 (stereo not shown) [compound 236] |
| 1.78[a] | C#Cc1cnc2ccc(C3=NOC(C)(C(=O)NCc4ccncn4)C3)cc2c1 (stereo not shown) [compound 663] |
| 2.26[a] | C#Cc1cnc2ccc(C3=NOC(C)(C(=O)NCc4cn(C5CC5)nc4C)C3)cc2c1 (stereo not shown) [compound 668] |
| 3.26^[a] | CCCSc1cnc2ccc(C3=NOC(C)(C(=O)NC(C)C)C3)cc2c1 (stereo not shown) [compound 254] |
| 3.25[a] | C#Cc1cnc2c(C)cc(C3=NOC(C)(C(=O)NC4CCC4)C3)cc2c1 (stereo not shown) [compound 578] |
| 2.88[a] | C#Cc1cnc2ccc(C3=NOC(C)(C(=O)NC(C#N)c4ccccc4)C3)cc2c1 (stereo not shown) [compound 324] |
| 1.40[a] | C#Cc1cnc2ccc(C3=NOC(C)(C(=O)NCc4ccncc4OC)C3)cc2c1 (stereo not shown) [compound 676] |
| 2.23^[a] | CC1(C(=O)NC2CCCCNC2=O)CC(c2ccc3ncc(Br)cc3c2)=NO1 (stereo not shown) [compound 252] |

The next lines start with the compound.

| Structure (SMILES) | log P |
| --- | --- |
| C#Cc1cnc2c(Cl)cc(C3=NOC(OC)(C(=O)NCC4COC(C)(C)O4)C3)cc2c1 (stereo not shown) [compound 589] | 2.82[a] |
| CC(=O)C1(C(=O)NC2CCC2)CC(c2ccc3ncc(Br)cc3c2)=NO1 (stereo not shown) [compound 583] | 3.06[a] |
| CC1(C(=O)NCc2ncccn2)CC(c2ccc3ncc(Br)cc3c2)=NO1 (stereo not shown) [compound 661] | 2.13[a] |
| CCn1cc(CNC(=O)C2(C)CC(c3ccc4nc(OC)c(Br)cc4c3)=NO2)c(C)n1 (stereo not shown) [compound 263] | 2.96^[a] |
| C#Cc1cnc2c(Cl)cc(C3=NOC(OC)(C(=O)NCc4cn(CCC)nc4C)C3)cc2c1 (stereo not shown) [compound 588] | 2.80[a] |
| CC1(C(=O)NCc2cnn(CC(F)F)c2)CC(c2ccc3ncc(Br)cc3c2)=NO1 (stereo not shown) [compound 646] | 2.42[a] |
| C=C(C)C1(C(=O)NCc2cn(CC)nc2C)CC(c2ccc3ncc(Br)cc3c2)=NO1 (stereo not shown) [compound 526] | 2.91[a] |
| COC1(C(=O)NC(C)C)CC(c2cc(C)c3ncc(Br)cc3c2)=NO1 (stereo not shown) [compound 608] | 3.37[a] |
| COC1(C(=O)NCC2COC(C)(C)O2)CC(c2cc(C)c3ncc(Br)cc3c2)=NO1 (stereo not shown) [compound 601] | 3.33[a] |
| CC(NC(=O)C1(C)CC(c2ccc3ncc(Br)cc3c2)=NO1)c1ccc(Cl)cc1 (stereo not shown) [compound 348] | 3.87[a] |
| C#Cc1cnc2c(Cl)cc(C3=NOC(OC)(C(=O)NC4CCC4)C3)cc2c1 (stereo not shown) [compound 592] | 3.02[a] |
| CC1(C)OCC(CNC(=O)C2(C(F)F)CC(c3ccc4ncc(Br)cc4c3)=NO2)O1 (stereo not shown) [compound 622] | 2.96[a] |
| COc1cccc(CNC(=O)C2(C)CC(c3ccc4ncc(Br)cc4c3)=NO2)n1 (stereo not shown) [compound 667] | 3.11[a] |
| CC(NC(=O)C1(C)CC(c2ccc3ncc(Br)cc3c2)=NO1)c1ccc(OC(F)(F)F)cc1 (stereo not shown) [compound 344] | 4.16[a] |
| COc1cnccc1CNC(=O)C1(C)CC(c2ccc3ncc(Br)cc3c2)=NO1 (stereo not shown) [compound 673] | 1.56[a] |
| C#Cc1cnc2c(Cl)cc(C3=NOC(OC)(C(=O)NCCCOCC)C3)cc2c1 (stereo not shown) [compound 594] | 2.88[a] |
| CCCn1cc(CNC(=O)C2(C(C)=O)CC(c3ccc4ncc(Br)cc4c3)=NO2)c(C)n1 (stereo not shown) [compound 586] | 2.80[a] |
| CC(NC(=O)C1(C)CC(c2ccc3ncc(Br)cc3c2)=NO1)c1cccc2ccccc12 (stereo not shown) [compound 340] | 4.09[a] |

same assay, conditions: HPLC on reversed phase columns, method [a]: pH 2.7, 0.1% formic acid in water and acetonitrile, linear gradient 10% to 95% acetonitrile

| log P | Structure (SMILES) |
| --- | --- |
| 3.25[a] | CC1(C(=O)NCC2CCC2)CC(c2ccc3ncc(Br)cc3c2)=NO1 (stereo not shown) [compound 775] |
| 1.29[a] | C#Cc1cnc2ccc(C3=NOC(C)(C(=O)NCc4ccncc4C)C3)cc2c1 (stereo not shown) [compound 683] |
| 2.68[a] | CC(C)(C#N)NC(=O)C1(C)CC(c2ccc3ncc(Br)cc3c2)=NO1 (stereo not shown) [compound 716] |
| 2.86[a] | CC1(C(=O)NC2CC(F)(F)C2)CC(c2ccc3ncc(Br)cc3c2)=NO1 (stereo not shown) [compound 755] |
| 3.15[a] | CC(C)CNC(=O)C1(C)CC(c2ccc3ncc(Br)cc3c2)=NO1 (stereo not shown) [compound 743] |
| 3.96[a] | C#CC(CC)(CC)NC(=O)C1(C)CC(c2ccc3ncc(Br)cc3c2)=NO1 (stereo not shown) [compound 717] |
| 3.21[a] | C#Cc1cnc2ccc(C3=NOC(C)(C(=O)NC(C4CC4)C4CC4)C3)cc2c1 (stereo not shown) [compound 768] |
| 2.21[a] | C#Cc1cnc2ccc(C3=NOC(C)(C(=O)NNC(C)C4CC4)C3)cc2c1 (stereo not shown) [compound 770] |
| 2.71[a] | C#Cc1cnc2ccc(C3=NOC(C)(C(=O)NCC4CC(F)(F)C4)C3)cc2c1 (stereo not shown) [compound 813] |
| 2.15[a] | CC1(C(=O)NCCC#N)CC(c2ccc3ncc(Br)cc3c2)=NO1 (stereo not shown) [compound 720] |
| 2.23[a] | C#Cc1cnc2ccc(C3=NOC(C)(C(=O)NCc4ccnc(F)c4)C3)cc2c1 (stereo not shown) [compound 802] |
| 2.11[a] | C#Cc1cnc2ccc(C3=NOC(OC)(C(=O)NCCC4CCCO4)C3)cc2c1 (racemic) [compound 818] |

Continued, compound first:

| Structure (SMILES) | log P |
| --- | --- |
| CC1(C(=O)NCc2cccnc2F)CC(c2ccc3ncc(Br)cc3c2)=NO1 (stereo not shown) [compound 786] | 2.51[a] |
| COc1ccc(CCNC(=O)C2(OC)CC(c3ccc4ncc(Br)cc4c3)=NO2)cc1OC (stereo not shown) [compound 712] | 2.94[a] |
| Cn1c(C(=NOCc2cccc(NC(=O)C3(C)CC(c4ccc5ncc(Br)cc5c4)=NO3)n2)c2ccccc2)noc1=O (stereo not shown) [compound 707] | 4.49[a] |
| CC1(C(=O)NCc2cncc(C#N)c2)CC(c2ccc3ncc(Br)cc3c2)=NO1 (stereo not shown) [compound 782] | 2.35[a] |
| CC1(C(=O)NC(C2CC2)C2CC2)CC(c2ccc3ncc(Br)cc3c2)=NO1 (stereo not shown) [compound 773] | 3.57[a] |
| CCn1cc(CNC(=O)C2(C)CC(c3ccc4ncc(Br)c(Cl)c4c3)=NO2)c(C)n1 (stereo not shown) [compound 735] | 2.69[a] |
| Cc1cc(CNC(=O)C2(C)CC(c3ccc4ncc(Br)cc4c3)=NO2)ccn1 (stereo not shown) [compound 684] | 1.40[a] |
| CCc1ccc(CNC(=O)C2(C)CC(c3ccc4ncc(Br)cc4c3)=NO2)nc1 (stereo not shown) [compound 744] | 2.05[a] |

same assay, conditions: method [a]: HPLC/LC-MS on reversed phase at pH 2.7, 0.1% formic acid in water / acetonitrile, gradient 10% to 95% acetonitrile

| log P | Structure (SMILES) |
| --- | --- |
| 1.52[a] | C#Cc1cnc2ccc(C3=NOC(C)(C(=O)NC4=NCCO4)C3)cc2c1 (stereo not shown) [compound 460] |
| 2.66[a] | CC(C)(C)ONC(=O)C1(C)CC(c2ccc3ncc(Br)cc3c2)=NO1 (racemic) [compound 373] |

Further lines, the compound ahead of its results:

| Structure (SMILES) | log P |
| --- | --- |
| CCn1cc(CNC(=O)C23CC2C(c2ccc4ncc(Br)cc4c2)=NO3)c(C)n1 (racemic) [compound 399] | 2.44[a] |
| CCn1cc(CNC(=O)C2(C)CC(c3ccc4ncc(N)cc4c3)=NO2)c(C)n1 (racemic) [compound 452] | 1.12[a] |
| CCn1cc(CNC(=O)C2(C)CC(c3ccc4nc(C(N)=O)c(I)cc4c3)=NO2)c(C)n1 (stereo not shown) [compound 484] | 1.60[a] |
| CCCCCCC(C)NC(=O)C1(C)CC(c2ccc3ncc(Br)cc3c2)=NO1 (racemic) [compound 370] | 4.73[a] |
| O=C(NC1CC1)C12CC1C(c1ccc3ncc(Br)cc3c1)=NO2 (racemic) [compound 398] | 2.50[a] |
| CCn1cc(CNC(=O)C2(C)CC(c3ccc4ncc(C(F)=CC(F)(F)F)cc4c3)=NO2)c(C)n1 (stereo not shown) [compound 405] | 2.84[a] |
| CC1(C)OCC(CNC(=O)C23CC2C(c2ccc4ncc(Br)cc4c2)=NO3)O1 (racemic) [compound 400] | 2.75[a] |
| CCn1cc(CNC(=O)C2(C)CC(c3ccc4ncc(-c5ccco5)cc4c3)=NO2)c(C)n1 (racemic) [compound 379] | 2.37[a] |

same assay, conditions: method [a]: HPLC/LC-MS on reversed phase at pH 2.7, 0.1% formic acid in water / acetonitrile, linear gradient 10% to 95% acetonitrile

| log P | Structure (SMILES) |
| --- | --- |
| 1.34^[a] | C#Cc1cnc2ccc(C3=NOC(C)(C(=O)NC4CC(C)(C)N(C)C(C)(C)C4)C3)cc2c1 (stereo not shown) [compound 217] |
| 3.58^[a] | C#Cc1cnc2ccc(C3=NOC(C)(C(=O)NCc4cccc(Cl)c4Cl)C3)cc2c1 (stereo not shown) [compound 172] |
| 1.42^[a] | C#Cc1cnc2ccc(C3=NOC(C)(C(=O)NCc4ccnc(N5CCCC5)c4)C3)cc2c1 (stereo not shown) [compound 166] |

The next lines start with the compound.

| Structure (SMILES) | log P |
| --- | --- |
| CC1(C(=O)NCc2ccc(Cl)cc2)CC(c2ccc3ncc(Br)cc3c2)=NO1 (stereo not shown) [compound 94] | 3.61^[a] |
| CC1(C(=O)NCc2nnco2)CC(c2ccc3ncc(Br)cc3c2)=NO1 (stereo not shown) [compound 204] | 2.17^[a] |
| CCCn1cc(CNC(=O)C2(C(F)(F)F)CC(c3ccc4ncc(Br)cc4c3)=NO2)c(C)n1 (stereo not shown) [compound 107] | 3.33^[a] |

same assay, conditions: method [a]: HPLC/LC-MS on reversed phase at pH 2.7, 0.1% formic acid in water and acetonitrile, linear gradient 10% to 95% acetonitrile

| Log P | Structure (SMILES) |
| --- | --- |
| 1.3^[a] | CNC(=O)C1(C)CC(c2ccc3ncccc3c2)=NO1 (stereo not shown) [compound 2] |
| 4.04^[a] | CCC(C)NC(=O)C1(C(F)(F)F)CC(c2cc3cc(Br)cnc3c(F)c2F)=NO1 (stereo not shown) [compound 15] |
| 2.92^[a] | CON(OC)C(=O)C1(C)CC(c2cc3cc(Br)cnc3c(F)c2F)=NO1 (stereo not shown) [compound 9] |

same assay, conditions: pH 2.7

| chromatographic logP | Structure (SMILES) |
| --- | --- |
| 3.04 | CC(C)NC(=O)C1(C)CC(c2ccc3ncc(-c4cccs4)cc3c2)=NO1 (stereo not shown) [Compound No. 144] |

same assay, conditions: reversed phase HPLC column; HPLC reversed phase, pH 2.7, 0.1% formic acid in water / acetonitrile, linear gradient 10% to 95% acetonitrile; calibration with alkan-2-ones; read-out: log P (HCOOH)

| chromatographic logP | Structure (SMILES) |
| --- | --- |
| 1.98 | O/N=C/c1ccc2ncc(I)cc2c1 [1-(3-iodoquinolin-6-yl)-N-hydroxymethanimine] |

From patent US9510598B2, “Nitrogen-containing heterocyclic compounds for plant disease control” (BAYER CROPSCIENCE AG, priority 2012, dated 2016)
